Patent US8940897B2, “1,3,4-oxadiazole and 1,3,4-thiadiazole β-lactamase inhibitors” (priority 2012, dated 2015)
Where a name gives a salt, the structure may show the parent alone.

How the values were obtained:
[1] = system: bacterial strains that express the class D cephalosporinase OXA-15; assay: Synergy MIC / standard BLI potentiation MIC assay, strains expressing OXA-15;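 further: more active means a lower MIC or sMIC than Avibactam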; type: cell-based, E. coli; details: in the presence of a β-lactam; comparator Avibactam (CCC)
Method in brief: (§1)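 CLSI broth microdilution in CAMHB, ~10^5 CFU/mL, 18–20 h at 37 °C with aeration; engineered E. coli kept on 25 μg/mL tetracycline. Potentiation: β-lactam 128–0.13 μg/mL with BLI fixed at 4 μg/mL; synergy MIC: BLI serially diluted with fixed β-lactam. MIC is the lowest concentration without visible turbidity.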

[2] = system: bacterial strains that express KPC β-lactamases; assay: Synergy MIC / standard BLI potentiation MIC assay, strains expressing KPC β-lactamases; type: cell-based; details: for at least one KPC strain and/or a better spectrum of activity against KPC strains than Avibactam; in the presence of a β-lactam
Method in brief: as §1

Row | SMILES | activity against bacterial strains that express OXA-15 β-lactamase compared with Avibactam [1] | activity against bacterial strains that express KPC β-lactamase compared with Avibactam [2]
1 | N[C@@H]1CN[C@@H](c2nnc([C@@H]3CC[C@@H]4CN3C(=O)N4OS(=O)(=O)O)o2)C1 [Compound 763, (2S,5R)-2-(5-((2R,4S)-4-aminopyrrolidin-2-yl)-1,3,4-oxadiazol-2-yl)-7-oxo-1,6-diazabicyclo[3.2.1]octan-6-yl hydrogen sulfate] | more active than Avibactam | more active than Avibactam
2 | O=C1N2C[C@@H](CC[C@H]2c2nnc(CC3CCNC3)o2)N1OS(=O)(=O)O (stereo partly drawn) [Compound 764, (2S,5R)-7-oxo-2-(5-(pyrrolidin-3-ylmethyl)-1,3,4-oxadiazol-2-yl)-1,6-diazabicyclo[3.2.1]octan-6-yl hydrogen sulfate] | more active than Avibactam | more active than Avibactam
3 | O=C1N2C[C@@H](CC[C@H]2c2nnc(CN[C@H]3CCNC3)o2)N1OS(=O)(=O)O [Compound 765, (2S,5R)-7-oxo-2-(5-(((S)-pyrrolidin-3-ylamino)methyl)-1,3,4-oxadiazol-2-yl)-1,6-diazabicyclo[3.2.1]octan-6-yl hydrogen sulfate] | more active than Avibactam | more active than Avibactam
4 | O=C1N2C[C@@H](CC[C@H]2c2nnc(CN[C@@H]3CCNC3)o2)N1OS(=O)(=O)O [Compound 766, (2S,5R)-7-oxo-2-(5-(((R)-pyrrolidin-3-ylamino)methyl)-1,3,4-oxadiazol-2-yl)-1,6-diazabicyclo[3.2.1]octan-6-yl hydrogen sulfate] | more active than Avibactam | more active than Avibactam
5 | N=C1NCC(c2nnc([C@@H]3CC[C@@H]4CN3C(=O)N4OS(=O)(=O)O)o2)N1 (stereo partly drawn) [Compound 767, (2S,5R)-2-(5-(2-iminoimidazolidin-4-yl)-1,3,4-oxadiazol-2-yl)-7-oxo-1,6-diazabicyclo[3.2.1]octan-6-yl hydrogen sulfate] | more active than Avibactam | more active than Avibactam
6 | N[C@H]1CC[C@@H](c2nnc([C@@H]3CC[C@@H]4CN3C(=O)N4OS(=O)(=O)O)o2)C1 [Compound 768, (2S,5R)-2-(5-((1R,3S)-3-aminocyclopentyl)-1,3,4-oxadiazol-2-yl)-7-oxo-1,6-diazabicyclo[3.2.1]octan-6-yl hydrogen sulfate] | more active than Avibactam | more active than Avibactam
7 | O=C1N2C[C@@H](CC[C@H]2c2nnc(CCNC3CCNCC3)o2)N1OS(=O)(=O)O [Compound 770, (2S,5R)-7-oxo-2-(5-(2-(piperidin-4-ylamino)ethyl)-1,3,4-oxadiazol-2-yl)-1,6-diazabicyclo[3.2.1]octan-6-yl hydrogen sulfate] | more active than Avibactam | more active than Avibactam
8 | O=C1N2C[C@@H](CC[C@H]2c2nnc(CCCNC3CCNCC3)o2)N1OS(=O)(=O)O [Compound 771, (2S,5R)-7-oxo-2-(5-(3-(piperidin-4-ylamino)propyl)-1,3,4-oxadiazol-2-yl)-1,6-diazabicyclo[3.2.1]octan-6-yl hydrogen sulfate] | more active than Avibactam | more active than Avibactam
9 | O=C1N2C[C@@H](CC[C@H]2c2nnc(CCCCNC3CCNCC3)o2)N1OS(=O)(=O)O [Compound 772, (2S,5R)-7-oxo-2-(5-(4-(piperidin-4-ylamino)butyl)-1,3,4-oxadiazol-2-yl)-1,6-diazabicyclo[3.2.1]octan-6-yl hydrogen sulfate] | more active than Avibactam | more active than Avibactam
10 | NC1CCN(Cc2nnc([C@@H]3CC[C@@H]4CN3C(=O)N4OS(=O)(=O)O)o2)CC1 [Compound 774, (2S,5R)-2-(5-((4-aminopiperidin-1-yl)methyl)-1,3,4-oxadiazol-2-yl)-7-oxo-1,6-diazabicyclo[3.2.1]octan-6-yl hydrogen sulfate] | more active than Avibactam | more active than Avibactam
11 | O=C1N2C[C@@H](CC[C@H]2c2nnc(CCN3CCNCC3)o2)N1OS(=O)(=O)O [Compound 776, (2S,5R)-7-oxo-2-(5-(2-(piperazin-1-yl)ethyl)-1,3,4-oxadiazol-2-yl)-1,6-diazabicyclo[3.2.1]octan-6-yl hydrogen sulfate] | more active than Avibactam | more active than Avibactam
12 | O=C1N2C[C@@H](CC[C@H]2c2nnc(CN3CCNCC3)o2)N1OS(=O)(=O)O [Compound 777, (2S,5R)-7-oxo-2-(5-(piperazin-1-ylmethyl)-1,3,4-oxadiazol-2-yl)-1,6-diazabicyclo[3.2.1]octan-6-yl hydrogen sulfate] | more active than Avibactam | more active than Avibactam
13 | O=C1N2C[C@@H](CC[C@H]2c2nnc([C@H]3CNCCN3)o2)N1OS(=O)(=O)O [Compound 779, (2S,5R)-7-oxo-2-(5-((R)-piperazin-2-yl)-1,3,4-oxadiazol-2-yl)-1,6-diazabicyclo[3.2.1]octan-6-yl hydrogen sulfate] | more active than Avibactam | more active than Avibactam
14 | N[C@H]1C[C@H](c2nnc([C@@H]3CC[C@@H]4CN3C(=O)N4OS(=O)(=O)O)s2)C1 [Compound 783, (2S,5R)-2-(5-((1r,3S)-3-aminocyclobutyl)-1,3,4-thiadiazol-2-yl)-7-oxo-1,6-diazabicyclo[3.2.1]octan-6-yl hydrogen sulfate] | more active than Avibactam | more active than Avibactam
15 | N=C(N)N[C@H]1C[C@@H](c2nnc([C@@H]3CC[C@@H]4CN3C(=O)N4OS(=O)(=O)O)s2)C1 [Compound 784, (2S,5R)-2-(5-((1s,3R)-3-guanidinocyclobutyl)-1,3,4-thiadiazol-2-yl)-7-oxo-1,6-diazabicyclo[3.2.1]octan-6-yl hydrogen sulfate] | more active than Avibactam | more active than Avibactam
16 | N=C(N)NCCc1nnc([C@@H]2CC[C@@H]3CN2C(=O)N3OS(=O)(=O)O)s1 [Compound 794, (2S,5R)-2-(5-(2-guanidinoethyl)-1,3,4-thiadiazol-2-yl)-7-oxo-1,6-diazabicyclo[3.2.1]octan-6-yl hydrogen sulfate] | more active than Avibactam | more active than Avibactam
17 | N[C@H]1C[C@@H](c2nnc([C@@H]3CC[C@@H]4CN3C(=O)N4OS(=O)(=O)O)s2)C1 [Compound 795, (2S,5R)-2-(5-((1s,3R)-3-aminocyclobutyl)-1,3,4-thiadiazol-2-yl)-7-oxo-1,6-diazabicyclo[3.2.1]octan-6-yl hydrogen sulfate] | more active than Avibactam | more active than Avibactam
